Experimental data: article PMC5559490, “Synthesis of Saccharumoside-B analogue with potential of antiproliferative and pro-apoptotic activities” (Scientific Reports, 2017)
Like-named read-outs stand apart in the source and are kept apart here.

What was measured:
HL-60 leukemia cells = test: MTT antiproliferative assay, HL-60; assay type: cell-based, human; settings: Homo sapiens
[1] = test system: HeLa cervical cancer cells; test: MTT antiproliferative assay, HeLa; assay type: cell-based; settings: Homo sapiens, read-out: IC50 HeLa Cervical
[2] = test system: human peripheral blood mononuclear cells (PBMC); test: MTT assay on normal PBMC; assay type: cell-based; settings: 48 h, read-out: IC50 PBMC (normal cells)
[3] = test system: DU145 prostate cancer cells; test: MTT antiproliferative assay, DU145; assay type: cell-based; settings: Homo sapiens
MCF-7 cells = test: Rhodamine-123 mitochondrial membrane potential assay, MCF-7; assay type: cell-based, human; settings: 24 h
Procedure: [Worded in the source for another cell line; this cell line is reported under the same test.] Mitochondrial membrane potential changes (ΔΨm) were determined by flow cytometry using rhodamine-123 (green-fluorescent dye)[32]. MIA PaCa-2 pancreatic cancer cells (1 × 10^6 cells/well) were exposed to the isolated compound (5 µM) for 24 h. Further, rhodamine-123 (200 nM) was added to the cells, which were kept in dark for 35 min. The cells were further centrifuged and the pellet was washed with phosphate buffered saline (1 ml). The intensity of fluorescence in the cells represented the mitochondrial membrane potential change (ΔΨm), which was measured using a flow cytometer.

[4] = test system: MIA PaCa-2 pancreatic cancer cells; test: MTT antiproliferative assay, MIA PaCa-2; assay type: cell-based; settings: Homo sapiens
[5] = test system: CaCo-2 colon cancer cells; test: MTT antiproliferative assay, CaCo-2; assay type: cell-based; settings: Homo sapiens
[6] = test system: MCF-10A mammary epithelial cells; test: MTT assay on normal MCF-10A cells; assay type: cell-based; settings: Homo sapiens, 48 h, read-out: IC50 MCF-10A Breast (normal cell line)
[7] = test system: MCF-7 breast cancer cells; test: MTT antiproliferative assay, MCF-7; assay type: cell-based; settings: Homo sapiens
[8] = HL-60, MTT assay, cancer cell line, mean of three independent experiments ± S.E.M., read-out: IC50 HL-60 Leukemia
[9] = MTT assay, cancer cell line, mean of three independent experiments ± S.E.M.
[10] = DU-145, MTT assay, cancer cell line, mean of three independent experiments ± S.E.M., read-out: IC50 DU145 Prostate
[11] = MIA PaCa-2, MTT assay, cancer cell line, mean of three independent experiments ± S.E.M., read-out: IC50 MIA PaCa-2 Pancreatic
[12] = Caco-2, MTT assay, cancer cell line, mean of three independent experiments ± S.E.M., read-out: IC50 CaCo-2 Colon
[13] = MCF7, MTT assay, cancer cell line, mean of three independent experiments ± S.E.M., read-out: IC50 MCF-7 Breast

| Compound | IC50 (HL-60 leukemia cells; [8]) [µM] | IC50 [1, 9] [µM] | IC50 [3, 10] [µM] | IC50 [4, 11] [µM] | IC50 [5, 12] [µM] | IC50 [7, 13] [µM] | melting point [°C] | IC50 ([2]; MTT assay, normal cells) [µM] | mitochondria membrane potential loss (MCF-7 cells; 5 µM) [%] | mitochondria membrane potential loss (MCF-7 cells; 10 µM) [%] | IC50 ([6]; MTT assay, normal cells) [µM] | IC50 (HL-60 leukemia cells; HL-60, read-out: IC50 HL-60 Leukemia) [µM] | IC50 [1] [µM] | IC50 [2] [µM] | IC50 ([3]; DU-145, read-out: IC50 DU145 Prostate) [µM] | IC50 ([4]; MIA PaCa-2, read-out: IC50 MIA PaCa-2 Pancreatic) [µM] | IC50 ([5]; Caco-2, read-out: IC50 CaCo-2 Colon) [µM] | IC50 [6] [µM] | IC50 ([7]; MCF7, read-out: IC50 MCF-7 Breast) [µM] |
| --- | --- | --- | --- | --- | --- | --- | --- | --- | --- | --- | --- | --- | --- | --- | --- | --- | --- | --- | --- |
| CC[C@@]1(O)C(=O)OCc2c1cc1n(c2=O)Cc2cc3ccccc3nc2-1 [Camptothecin, camptothecin, reference compound] | 4.95 ± 0.5 | 4.28 ± 0.32 | 6.75 ± 0.45 | 4.24 ± 0.41 | 3.68 ± 0.21 | 5.16 ± 0.32 | – | > 100 | 53.33 ± 3.06 | 62 ± 2.31 | > 100 | – | – | – | – | – | – | – | – |
| COc1cc(CO)ccc1OC1OC(COC(=O)c2ccccc2)C(O)C(O)C1O (stereo not drawn) [Compound 9b, (6-(4-(hydroxymethyl)-2-methoxyphenoxy)-tetrahydro-3,4,5-trihydroxy-2H-pyran-2-yl)methyl benzoate] | 22.8 ± 1.3 | 36.7 ± 2.31 | 37.3 ± 2.54 | 39.3 ± 1.42 | 47.3 ± 1.62 | 26.4 ± 0.96 | 187 to 189 | > 100 | – | – | > 100 | – | – | – | – | – | – | – | – |
| COc1cc(CO)ccc1OC1OC(COC(=O)c2ccc(C)cc2)C(O)C(O)C1O (stereo not drawn) [Compound 9c, (6-(4-(hydroxymethyl)-2-methoxyphenoxy)-tetrahydro-3,4,5-trihydroxy-2H-pyran-2-yl)methyl 4-methylbenzoate] | 12.5 ± 0.81 | 14.2 ± 0.68 | 12.4 ± 0.47 | 13.3 ± 0.25 | 13.7 ± 0.63 | 9.34 ± 0.48 | 228 to 230 | > 100 | – | – | > 100 | – | – | – | – | – | – | – | – |
| COc1cc(OC)cc(C(=O)OCC2OC(Oc3ccc(CO)cc3OC)C(O)C(O)C2O)c1 (stereo not drawn) [Compound 9d, (6-(4-(hydroxymethyl)-2-methoxyphenoxy)-tetrahydro-3,4,5-trihydroxy-2H-pyran-2-yl)methyl 3,5-dimethoxybenzoate] | 25.2 ± 1.92 | 39.5 ± 2.43 | 42.5 ± 1.51 | 44.6 ± 2.67 | 37.4 ± 1.65 | 28.3 ± 1.47 | 199 to 201 | > 100 | – | – | > 100 | – | – | – | – | – | – | – | – |
| COc1cc(CO)ccc1OC1OC(COC(=O)c2cc(OC)c(OC)c(OC)c2)C(O)C(O)C1O (stereo not drawn) [Compound 9e, (6-(4-(hydroxymethyl)-2-methoxyphenoxy)-tetrahydro-3,4,5-trihydroxy-2H-pyran-2-yl)methyl 3,4,5-trimethoxybenzoate] | 22.2 ± 1.32 | – | 49.4 ± 1.72 | 36.3 ± 1.58 | 43.5 ± 1.87 | 33.4 ± 0.76 | 168 to 170 | > 100 | – | – | > 100 | – | – | – | – | – | – | – | – |
| COc1cc(CO)ccc1OC1OC(COC(=O)c2ccccc2I)C(O)C(O)C1O (stereo not drawn) [Compound 9g, (6-(4-(hydroxymethyl)-2-methoxyphenoxy)-tetrahydro-3,4,5-trihydroxy-2H-pyran-2-yl)methyl 2-iodobenzoate] | 33.5 ± 1.45 | 41.9 ± 3.15 | 38.32 ± 0.37 | 23.4 ± 1.53 | 43.9 ± 2.52 | 28.9 ± 0.47 | 128 to 130 | > 100 | – | – | > 100 | – | – | – | – | – | – | – | – |
| COc1cc(CO)ccc1OC1OC(COC(=O)c2cccnc2)C(O)C(O)C1O (stereo not drawn) [Compound 9h, (6-(4-(hydroxymethyl)-2-methoxyphenoxy)-tetrahydro-3,4,5-trihydroxy-2H-pyran-2-yl)methyl nicotinate] | 30.2 ± 1.32 | 35.4 ± 2.2 | 42.1 ± 1.52 | 33.9 ± 1.41 | 49.04 ± 0.48 | 33.9 ± 0.48 | 194 to 196 | > 100 | – | – | > 100 | – | – | – | – | – | – | – | – |
| COc1cc(CO)ccc1OC1OC(COC(=O)c2cc([N+](=O)[O-])cc([N+](=O)[O-])c2)C(O)C(O)C1O (stereo not drawn) [Compound 9i, (6-(4-(hydroxymethyl)-2-methoxyphenoxy)-tetrahydro-3,4,5-trihydroxy-2H-pyran-2-yl)methyl 3,5-dinitrobenzoate] | – | – | – | – | – | – | 186 to 188 | – | – | – | – | 29.6 ± 0.83 | 38.4 ± 1.53 | > 100 | 43.6 ± 1.87 | 34.8 ± 1.93 | 47 ± 2.58 | > 100 | 34.8 ± 0.51 |
| COc1cc(CO)cc(OC)c1OC1OC(COC(=O)c2ccccc2)C(O)C(O)C1O (stereo not drawn) [Compound 9j, (6-(4-(hydroxymethyl)-2,6-dimethoxyphenoxy)-tetrahydro-3,4,5-trihydroxy-2H-pyran-2-yl)methyl benzoate] | 25.6 ± 0.94 | 30.4 ± 2.81 | 36.8 ± 0.59 | 45.76 ± 0.42 | 33.6 ± 1.51 | 29.4 ± 0.79 | 180 to 182 | > 100 | – | – | > 100 | – | – | – | – | – | – | – | – |

Continued, in another order:

| IC50 (HL-60 leukemia cells; [8]) [µM] | IC50 [1, 9] [µM] | IC50 [3, 10] [µM] | IC50 [4, 11] [µM] | IC50 [5, 12] [µM] | IC50 [7, 13] [µM] | melting point [°C] | Compound | IC50 ([2]; MTT assay, normal cells) [µM] | mitochondria membrane potential loss (MCF-7 cells; 5 µM) [%] | mitochondria membrane potential loss (MCF-7 cells; 10 µM) [%] | IC50 ([6]; MTT assay, normal cells) [µM] | IC50 (HL-60 leukemia cells; HL-60, read-out: IC50 HL-60 Leukemia) [µM] | IC50 [1] [µM] | IC50 [2] [µM] | IC50 ([3]; DU-145, read-out: IC50 DU145 Prostate) [µM] | IC50 ([4]; MIA PaCa-2, read-out: IC50 MIA PaCa-2 Pancreatic) [µM] | IC50 ([5]; Caco-2, read-out: IC50 CaCo-2 Colon) [µM] | IC50 [6] [µM] | IC50 ([7]; MCF7, read-out: IC50 MCF-7 Breast) [µM] |
| --- | --- | --- | --- | --- | --- | --- | --- | --- | --- | --- | --- | --- | --- | --- | --- | --- | --- | --- | --- |
| 18.5 ± 0.78 | 26.6 ± 1.37 | 42.8 ± 0.59 | 23.9 ± 0.74 | 28.3 ± 1.47 | 22 ± 0.72 | 201 to 203 | COc1cc(CO)cc(OC)c1OC1OC(COC(=O)c2ccc(C)cc2)C(O)C(O)C1O (stereo not drawn) [Compound 9k, (6-(4-(hydroxymethyl)-2,6-dimethoxyphenoxy)-tetrahydro-3,4,5-trihydroxy-2H-pyran-2-yl)methyl 4-methylbenzoate] | > 100 | – | – | > 100 | – | – | – | – | – | – | – | – |
| 31.8 ± 1.58 | 36.3 ± 1.76 | 49.6 ± 3.59 | 43.8 ± 1.75 | 41.1 ± 1.48 | 33.8 ± 0.73 | 131 to 133 | COc1cc(OC)cc(C(=O)OCC2OC(Oc3c(OC)cc(CO)cc3OC)C(O)C(O)C2O)c1 (stereo not drawn) [Compound 9l, (6-(4-(hydroxymethyl)-2,6-dimethoxyphenoxy)-tetrahydro-3,4,5-trihydroxy-2H-pyran-2-yl)methyl 3,5-dimethoxybenzoate] | > 100 | – | – | > 100 | – | – | – | – | – | – | – | – |
| 21.8 ± 1.53 | 34.1 ± 1.83 | 33.8 ± 1.27 | 47.3 ± 2.54 | 35.6 ± 1.46 | 28.4 ± 0.69 | 170 to 172 | COc1cc(CO)cc(OC)c1OC1OC(COC(=O)c2ccc(F)cc2)C(O)C(O)C1O (stereo not drawn) [Compound 9m, (6-(4-(hydroxymethyl)-2,6-dimethoxyphenoxy)-tetrahydro-3,4,5-tri hydroxy-2H-pyran-2-yl)methyl 4-fluorobenzoate] | > 100 | – | – | > 100 | – | – | – | – | – | – | – | – |
| 28.3 ± 1.72 | 32.1 ± 1.35 | 37.9 ± 2.48 | 26.8 ± 1.25 | 45.2 ± 1.79 | 35 ± 1.52 | 124 to 126 | COc1cc(CO)cc(OC)c1OC1OC(COC(=O)c2ccccc2I)C(O)C(O)C1O (stereo not drawn) [Compound 9n, (6-(4-(hydroxymethyl)-2,6-dimethoxyphenoxy)-tetrahydro-3,4,5-tri hydroxy-2H-pyran-2-yl)methyl 2-iodobenzoate] | > 100 | – | – | > 100 | – | – | – | – | – | – | – | – |
| 31.8 ± 1.82 | 39.9 ± 2.6 | 33.5 ± 1.43 | 28.3 ± 0.76 | 44.7 ± 2.52 | 24.9 ± 1.67 | 200 to 202 | COc1cc(C(=O)OC[C@H]2O[C@@H](Oc3ccc(CO)cc3OC)[C@H](O)[C@@H](O)[C@@H]2O)ccc1O [Compound 10, (6-(4-(hydroxymethyl)-2-methoxyphenoxy)-tetrahydro-3,4,5-trihydroxy-2H-pyran-2-yl) methyl 4-hydroxy-3-methoxy benzoate] | > 100 | – | – | > 100 | – | – | – | – | – | – | – | – |
